The target in one assay is T1, NDM-1 (Klebsiella pneumoniae, UniProt C7C422).
T1 construct: made in house
Put plainly: Time-dependent inactivation kinetics of purified NDM-1 (imipenem). Type of assay: biochemical. The method, then:
Protein expression and purification of NDM-1 and VIM-2 were performed as previously described ([36], [43], [57]). Stock solutions of purified NDM-1 and VIM-2 were prepared in 50 mM HEPES buffer (pH 7.5; Merck). Inhibition of NDM-1 and VIM-2 were determined for ZN148 and the analogues ZN222, ZN223, and ZN228 at different concentrations of inhibitor after preincubation times of 2, 8, 15, 25, and 32 min in 50 mM HEPES buffer (pH 7.5) supplemented with 1 μM ZnSO4 (Sigma-Aldrich) and bovine serum albumin (Sigma-Aldrich; final concentration, 2 μg/ml) at 25°C. Concentrations of 1 nM VIM-2 and 30 nM NDM-1 were used, and the reaction was initiated by the addition of 30 μM nitrocefin (Merck) for VIM-2 or 100 μM imipenem (Sigma-Aldrich) for NDM-1. The reaction was measured at 482 nm (VIM-2) or […] (NDM-1) in either standard 96-well plates (Thermo Fisher Scientific) for VIM-2 or UV-transparent 96-well plates (Corning, Kennebunk, ME) for NDM-1 at 25°C in a SpectraMax Plus plate reader (Molecular Devices). All of the enzyme and substrate concentrations indicated are the final concentrations in the assay. The enzyme activity as a percentage was calculated based on the initial velocity and compared to the control without inhibitor compound. All tests were performed at least in duplicates.
The observed rate constant (kobs) per inhibitor concentration was calculated from the slope of a semilog plot of the enzyme activity in percent versus preincubation time.
By fitting these values, the irreversible kinetic parameters maximum inactivation rate (kinact) and the inhibitor concentration that produces half-maximal rate of inactivation (KI) were obtained. Finally, the inhibitors were characterized by calculating kinact/KI. Where no saturation curve could be observed, KI and kinact were determined from the linear part of plot 1/kobs versus 1/[I].

Assay [1] has as its target T2, VIM-2 (Escherichia coli, UniProt Q5U7L7).
T2 construct: made in house
In kind it is biochemical. As to the method:
For reversibility of enzyme activity after incubation with ZN148, 3 ml of VIM-2 or NDM-1 was diluted with or without ZN148 in Chelex HEPES buffer (pH 7.5) and subsequently incubated for 1 h on ice. Then, 2.5 ml of each solution was loaded onto an equilibrated PD-10 column (GE Healthcare, Pittsburgh, PA), washed with 1 ml, and eluted with 1.5 ml of Chelex HEPES buffer (pH 7.5), respectively. Samples spiked and not spiked with inhibitor were diluted to a final enzyme concentration of 1 nM VIM-2 and 3 nM NDM-1. The initial reaction velocity was determined by adding nitrocefin (Merck) for VIM-2 or imipenem (Sigma-Aldrich) for NDM-1 at final concentrations of 50 and 100 μM, respectively. The initial enzyme reactions were recorded at 25°C. Inhibitor and enzyme alone were included as controls. All measurements were performed at least in duplicates. For enzyme restorability, pre- and postcolumn samples were supplemented with ZnSO4 (Sigma-Aldrich) to a final concentration of 100 μM and allowed to incubate for 5 min at 25°C. The initial enzyme velocity was then determined as described above.

Assay [2] deals with the strains (MBL-producing Gram-negative clinical strains). Description: Intrinsic antibacterial activity of the inhibitor. In kind it is cell-based. The following applies: concentrations up to 500 μM. The method, then:
(§1) MICs of carbapenems alone and in combination with inhibitors were determined by broth microdilution according to the Clinical and Laboratory Standards Institute (CLSI) guidelines ([48]) using either premade plates (TREK Diagnostic Systems/Thermo Fisher Scientific, East Grinstead, United Kingdom) with meropenem or in-house-prepared plates with meropenem, imipenem, and doripenem. ZN148 and other inhibitors were tested at a fixed concentration of 50 μM. Cation-adjusted Mueller-Hinton medium (TREK Diagnostic Systems/Thermo Fisher Scientific; Becton Dickinson, Franklin Lakes, NJ) were used as growth medium. The plates were incubated for 20 h at 37°C. ZN148, ZN222, ZN223, ZN228, and TPA were initially tested in combination with meropenem using two indicator strains: NDM-1-producing K. pneumoniae ([49], [50]) and VIM-2-producing P. aeruginosa ([51]). […]

Assay [3] has as its target T2, VIM-2. Put plainly: LC-ESI-MS of VIM-2 incubated with inhibitor. The following applies: VIM-2 preincubated with 5 mM ZN148. The method, then:
VIM-2 (8 μM final concentration) was incubated together without or with 5 mM ZN148 on ice for 30 min. Incubation was carried out in Chelex HEPES buffer (pH 7.5), and the inhibitors were diluted in Milli-Q water (Millipore/Merck) by a factor of 1,000,000 using centrifugal filters (10,000 Da; Merck). Liquid chromatography electrospray ionization Q-TOF mass spectrometry (LC-ESI-MS; Agilent Technologies, Santa Clara, CA) was performed in positive-ion mode using 0.1% formic acid in Milli-Q water and acetonitrile (VWR, Radnor, PA) at 0.4 ml/min. Spectra deconvolution was performed by using BioConfirm and MassHunter qualitative analysis (Agilent Technologies).

The test system of assay [4] is M. morganii co-producing MBLs and class A/D serine carbapenemases. Put plainly: Meropenem MIC, M. morganii co-producing NDM-1 and OXA-48. In kind it is cell-based. The following applies: Morganella morganii; NDM-1 + OXA-48 strain; meropenem alone or with 50µM ZN148. The method, then: as §1
For assay [5], the system named is class A carbapenemase (KPC)-producing E. cloacae. Description: Carbapenem MIC, class A carbapenemase-producing E. cloacae. The following applies: carbapenem alone or with 50µM ZN148. Type of assay: cell-based. As to the method: (§2) MICs of carbapenems alone and in combination with inhibitors were determined by broth microdilution according to the Clinical and Laboratory Standards Institute (CLSI) guidelines ([48]) using either premade plates (TREK Diagnostic Systems/Thermo Fisher Scientific, East Grinstead, United Kingdom) with meropenem or in-house-prepared plates with meropenem, imipenem, and doripenem. ZN148 and other inhibitors were tested at a fixed concentration of 50 μM. Cation-adjusted Mueller-Hinton medium (TREK Diagnostic Systems/Thermo Fisher Scientific; Becton Dickinson, Franklin Lakes, NJ) were used as growth medium. The plates were incubated for 20 h at 37°C. ZN148, ZN222, ZN223, ZN228, and TPA were initially tested in combination with meropenem using two indicator strains: NDM-1-producing K. pneumoniae ([49], [50]) and VIM-2-producing P. aeruginosa ([51]). The activity of ZN148 were subsequently tested against two extended strain collections: (i) in combination with meropenem against MBL-producing Enterobacterales (n = 62), MBL-producing P. aeruginosa (n = 9) and MBL- and class D carbapenemase-coproducing Enterobacterales (n = 5) from the strain collection at the Norwegian National Advisory Unit on Detection of Antimicrobial Resistance and (ii) in combination with meropenem, imipenem, and doripenem against globally collected MBL-producing E. coli (n = 87), K. pneumoniae (n = 85), P. aeruginosa (n = 52), and A. baumannii (n = 6), MBL- and class A/D carbapenemase-coproducing E. coli (n = 11), K. pneumoniae (n = 15) and A. baumannii (n = 7) at IHMA Europe, Sàrl, Switzerland. E. coli ATCC 25922 and P. aeruginosa ATCC 27853 were used as quality control strains. The MBL inhibitors were also tested for intrinsic antibacterial activity against the strains.

A further assay has as its system E. coli with VIM (n=7). Description: Meropenem MIC distribution, E. coli with VIM. Type of assay: cell-based. The following applies: MEM alone or +50 µM ZN148. The method, then: as §2

Where two headings read alike, the source gives them in different places.

T1 sequence (C7C422 29-270, looked up): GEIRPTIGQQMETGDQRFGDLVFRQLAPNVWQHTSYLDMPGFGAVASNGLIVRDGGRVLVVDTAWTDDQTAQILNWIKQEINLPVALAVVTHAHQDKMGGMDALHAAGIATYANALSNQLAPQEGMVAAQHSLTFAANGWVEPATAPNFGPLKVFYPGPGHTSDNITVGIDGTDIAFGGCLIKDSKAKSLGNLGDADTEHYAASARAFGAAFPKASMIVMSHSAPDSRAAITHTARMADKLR

In general, kinact refers to the rate constant of inactivation at saturating inhibitor. A word on the kinact/KI: it is the maximal inactivation rate divided by the concentration that gives half of it. On to `CN(C[C@H](O)[C@@H](O)[C@H](O)[C@H](O)CO)C(=O)c1ccc(CN(Cc2ccccn2)Cc2ccccn2)nc1` [ZN148], for which, on NDM-1, the kinact is 0.000983 s⁻¹ and the kinact/KI is 3.17 M⁻¹ s⁻¹. Besides, on VIM-2 [1], the mode of inhibition result was “irreversible”. On VIM-2 [1] (after incubation with inhibitor and its removal (PD-10), 100 μM ZnSO4), the “MBL activity restored by addition of exogenous zinc, compared to untreated control” value was around 30%. Also, the intrinsic antibacterial activity result in assay [2] is reported as “no intrinsic antibacterial activity”. Moreover, at VIM-2 [3], the “change in mass of VIM-2” value worked out at 46.2 ± 0.1 Da.

As a reminder, the MIC is the least concentration at which growth counts as inhibited. Consider `C[C@@H](O)[C@H]1C(=O)N2C(C(=O)O)=C(S[C@@H]3CN[C@H](C(=O)N(C)C)C3)[C@H](C)[C@H]12` [meropenem], for which the MIC worked out at 8 µg/mL in assay [4]; 16 µg/mL in assay [5] (Enterobacter cloacae, KPC-2 strains, one value per strain, read-out: MIC); 2 µg/mL in assay [5] (Enterobacter cloacae, KPC-3 strain, read-out: MIC); 32 µg/mL in assay [5] (KPC-2 strains, one value per strain, listed as MEM). The “No. of strains with indicated MIC” value in the assay with E. coli with VIM (n=7) (MIC 0.5 mg/L) is listed as 1; in the assay with E. coli with VIM (n=7) (MIC 8 mg/L) it was 3; in the assay on E. coli with VIM (n=7) (MIC 16 mg/L) it was 2; in the assay on E. coli with VIM (n=7) (MIC 32 mg/L) it was 1.

The record behind these values is paper PMC7269481, “ZN148 Is a Modular Synthetic Metallo-β-Lactamase Inhibitor That Reverses Carbapenem Resistance in Gram-Negative Pathogens In Vivo” (Antimicrobial Agents and Chemotherapy, 2020).
